Source: publication PMC11443511, “Discovery of anti-infective compounds against Mycobacterium marinum after biotransformation of simple natural stilbenes by a fungal secretome” (Frontiers in Microbiology, 2024)
“Also recorded” adds a separate entry of the source. Like-named read-outs stand apart in the source and are kept apart here.

How the values were obtained:
[1] = tested on: Mycobacterium marinum (Mm) in infection of Dictyostelium discoideum (Mm-inf); test: Anti-infective assay, growth of Mm during infection of Dd (Mm-inf, luminescence); assay type: cell-based; settings: for IC50: 72 h; for pro-infective effect on Mm-inf (in words): between 0.4 and 3.3 μM; for activity at 20 µM: vehicle = 1, baseline = 0, hit cut-off <0.5
[2] = tested on: Mycobacterium marinum in broth (Mm-broth); test: Antibacterial assay, growth of Mm in broth (Mm-broth, luminescence); assay type: cell-based; settings: for activity on Mm in broth (in words): screen at 20 μM or dose-response curve; for IC50 / MIC: Mycobacterium marinum; for IC50: read-out: IC50 Mm-broth; for activity on Mm-broth (in words): at respective maximal tested concentration; for normalized residual growth of Mm-broth: 20 μM, vehicle = 1, baseline = 0
[3] = tested on: Dictyostelium discoideum (Dd-inf); test: microbe, parasite or virus in culture; assay type: cell-based; settings: for IC50: Dictyostelium discoideum, 72 h, read-out: IC50 Dd-inf (Dd growth); for normalized residual growth of Dd-inf: 20 μM, vehicle = 1, baseline = 0
[4] = tested on: intracellular Mm; test: Anti-infective assay with high-content microscopy, area of intracellular Mm; settings: 20, 10, 2.5 μM, up to 48 h
Description: (§1) To monitor both the host and pathogen during the course of infection in a quantitative manner, Dd Ax2(ka) cells expressing mCherry knocked-in at the act5 locus ([Paschke et al., 2019]) were infected as described above with Mm WT stably expressing GFP (Msp:12-GFP). As described above, the day before the experiment, 10^7 amoebae were plated in a 10 cm Petri dish. On the day of the experiment, infection was performed, as described above, in HL5-C at MOI 25 by spinoculation. This was followed by eight washes in HL5-C to clear a maximum of non-internalized bacteria. The infected amoebae were detached mechanically and resuspended in HL5-C with 0.75 U/mL penicillin and 0.75 μg/mL of streptomycin (Gibco). Compounds were diluted in HL5-C to a 10x stock of the final assay concentration and pre-plated in 20 μL into the respective wells of a 96-well μ-plate (iBIDI 96-well μ-plate, 89,626). Subsequently, 7,500 cells per well were added in a volume of 180 μL. Every condition has been plated in at least three technical replicates and at least three biological replicates. The 96-well plate was sealed with a gas permeable seal (4titude, 4ti-0516/96) and centrifuged briefly.
(§2) Microscopy images were acquired at 25°C with a 40X plan Apo objective at selected time points over 48 h on the ImageXpress Micro C® automated microscope (Molecular Devices) in wide field mode. Focus was obtained automatically by autofocusing on the well bottom and plate bottom, at every well and every time point. In a grid of 4 × 5, 20 images per well, corresponding to a range of 500–6,000 cells, have been taken using the Texas-Red channel for Dd expressing mCherry and FITC channel for Mm expressing GFP in each experiment. Image analysis was performed using MetaXpress Custom Module editor software. Objects were effectively segmented by size and intensity. More precisely, amoebae were segmented using a “find blob module” using the Texas-Red channel. To segment the bacteria, the FITC image was first subjected to a light deconvolution with a top hat filter and then segmented using a “find blob module.” Intracellular bacteria and infected amoebae were determined by associating the mask of the amoebae and the bacteria. Several parameters such as intracellular and extracellular bacterial area sum, amoebae area sum, averaged and integrated fluorescence intensity and feature counts of bacteria and amoeba were extracted. The growth curves for the area sum of uninfected amoebae, infected amoebae and intracellular bacteria of independent biological replicates were averaged and plotted using GraphPad Prism (Version 8.0.1).
(§3) Both uninfected Dd and Dd infected with Mm were treated with 20, 10 or 2.5 μM of 17 or 19 and the infection was monitored by collecting microscopy images at five time points for up to 48 h.

[5] = tested on: Dd Ax2(ka) cells; test: Anti-infective assay with high-content microscopy, area of uninfected and infected Dd; settings: 20, 10, 2.5 μM, up to 48 h
Description: as §1, §2, §3

[6] = tested on: Mm; settings: MIC90 from clinical isolates, cited from earlier work
[7] = read-out: IC50 Mm-inf, 72 h, AUC of luminescence normalized to vehicle, 4PL regression
[8] = read-out: normalized residual growth of Mm-inf, 20 μM
[9] = AUC of luminescence normalized to vehicle, 4PL regression, read-out: IC50 Mm-inf
[10] = at respective maximal tested concentration
[11] = ref Woods and Clinical and Laboratory Standards Institute, 2011
[12] = converted from μM, read-out: MIC in infection
[13] = lowest concentration with normalized residual growth plus one SD ≤0, 72 h, read-out: MIC Mm-inf
[14] = 72 h, 7H9 broth, 32°C, read-out: MIC Mm-broth
[15] = 20 μM, read-out: normalized residual growth of Mm-inf

Structure (SMILES): COc1cc(/C=C/c2ccc3oc(-c4ccc(O)cc4)c(-c4cc(O)cc(O)c4)c3c2)cc(OC)c1 [compound 68]
- IC50 [1, 7]: 20.1 µM

Structure (SMILES): NC(=O)c1cnccn1 [pyrazinamide, reference compound]
- pro-infective effect on Mm-inf (in words) [1]: slight pro-infective effect
- activity on Mm-inf (in words) ([1]; dose-response curve): lack of activity; also recorded: no activity against Mm
- activity on Mm in broth (in words) [2]: no activity against Mm

Structure (SMILES): Oc1ccc(-c2oc3ccc(/C=C/c4cc(O)cc(O)c4)cc3c2-c2cc(O)cc(O)c2)cc1 [compound 66]
- IC50 [1, 7]: 29.7 µM
- activity at 20 µM [1, 8]: 55%
- IC50 [3]: 26.2 µM

Structure (SMILES): COc1cc(O)cc(/C=C/c2ccc3c(c2)[C@H](c2cc(O)cc(OC)c2)[C@@H](c2ccc(O)cc2)O3)c1 [compound 64]
- IC50 [1, 9]: 8 µM
- lowest measured value of Dd-inf (normalized residual growth) ([3]; dose-response curve): 0.62
- growth of intracellular Mm (segmented area, in words) [4]: infection was well controlled
- growth of uninfected Dd (segmented area, in words) [5]: only a slight growth inhibition at 20 μM

Structure (SMILES): COc1ccc([C@H]2Oc3ccc(/C=C/c4cc(O)cc(OC)c4)cc3[C@@H]2c2cc(O)cc(O)c2)cc1 [compound 63]
- IC50 [1, 9]: 8.6 µM
- lowest measured value of Dd-inf (normalized residual growth) ([3]; dose-response curve): 0.8
- growth of intracellular Mm (segmented area, in words) [4]: infection was well controlled
- growth of uninfected Dd (segmented area, in words) [5]: only a slight growth inhibition at 20 μM

Structure (SMILES): COc1cc(O)cc(/C=C/c2ccc(O)cc2)c1 [compound 3, pinostilbene]
- activity on Mm-inf (in words) ([1]; dose-response curve): active on Mm-inf, at high concentrations (>20 μM)

Structure (SMILES): CO[C@H]1/C=C/O[C@@]2(C)Oc3c(C)c(O)c4c(c3C2=O)C2=NC3(CCN(CC(C)C)CC3)NC2=C(NC(=O)/C(C)=C\C=C\[C@H](C)[C@H](O)[C@@H](C)[C@@H](O)[C@@H](C)[C@H](OC(C)=O)[C@@H]1C)C4=O [rifabutin]
- IC50 [1, 7]: 0.2 µM
- activity on Mm-inf (in words) [1, 10]: sterilizing activity
- activity on Dd growth, Dd-inf (in words) ([3]; dose-response curve): affected amoebae growth slightly at the highest tested concentrations
- IC50 ([2]; 72 h): 0.03 µM
- MIC ([2]; 72 h, read-out: MIC Mm-broth): 0.01 µM
- activity on Mm-broth (in words) [2]: sterilizing activity
- breakpoint of antibacterial susceptibility for Mm [6, 11]: 2 µg/mL

Structure (SMILES): Oc1ccc(/C=C/c2cc(O)cc(O)c2)cc1 [compound 1, resveratrol]
- activity on Mm-inf (in words) ([1]; dose-response curve): lack of activity

Structure (SMILES): COc1cc([C@H]2Oc3c(OC)cc(/C=C/c4cc(O)cc(O)c4)cc3[C@@H]2c2cc(O)cc(O)c2)ccc1O [compound 65]
- activity on Mm-inf (in words) ([1]; at 20 μM): pro-infective activity

Structure (SMILES): CC[C@@H](CO)NCCN[C@@H](CC)CO [ethambutol, reference compound]
- IC50 [1, 7]: 7 µM
- activity on Mm-inf (in words) [1, 10]: sterilizing activity
- MIC [1, 12]: 6.1 µg/mL
- MIC [1, 13]: 30 µM
- IC50 ([2]; 72 h): 1 µM
- MIC [2, 14]: 3.3 µM
- activity on Mm-broth (in words) [2]: sterilizing activity
- breakpoint of antibacterial susceptibility for Mm [6, 11]: 4 µg/mL

Structure (SMILES): CCc1cc(C(N)=S)ccn1 [ethionamide]
- IC50 [1, 7]: 4 µM
- activity on Mm-inf (in words) [1, 10]: sterilizing activity
- IC50 ([2]; 72 h): 0.8 µM
- MIC ([2]; 72 h, read-out: MIC Mm-broth): 3.3 µM
- activity on Mm-broth (in words) [2]: sterilizing activity
- breakpoint of antibacterial susceptibility for Mm ([6]; ref Lorian, 2005): 5 µg/mL

Structure (SMILES): COc1ccc([C@H]2Oc3ccc(/C=C/c4cc(O)cc(O)c4)cc3[C@@H]2c2cc(O)cc(OC)c2)cc1 [compound 62]
- IC50 [1, 9]: 13.4 µM
- lowest measured value of Dd-inf (normalized residual growth) ([3]; dose-response curve): 0.42

Structure (SMILES): COc1cc(C=Cc2ccc3c(c2)C(c2cc(O)cc(O)c2)C(c2ccc(O)cc2)O3)cc(OC)c1 (stereo not drawn) [compound 19]
- IC50 [1, 9]: 9 µM
- activity on Mm-inf (in words) ([1]; at 20 μM): passed again the 0.5 cut-off
- activity on Mm-inf (in words) ([1]; dose-response curve): dose-dependent activity; also recorded: validated anti-infectives without antibiotic properties
- activity at 20 µM [1, 8]: -32%
- normalized residual growth of Dd-inf [3]: –0.22
- IC50 ([3]; dose-response curve): 12.1 µM
- lowest measured value of Dd-inf (normalized residual growth) ([3]; dose-response curve): −0.40
- activity on Mm in broth (in words) [2]: no activity on Mm in broth; also recorded: without antibiotic activity; also recorded: did not show any growth inhibition
- growth of intracellular Mm (segmented area, in words) [4]: almost completely inhibited
- growth of infected Dd (segmented area, in words) [5]: almost completely inhibited
- growth of uninfected Dd (segmented area, in words) [5]: significantly reduced

Structure (SMILES): COc1cc(/C=C/c2ccc3oc(-c4ccc(O)cc4)c(-c4cc(OC)cc(OC)c4)c3c2)cc(OC)c1 [compound 69]
- activity on Mm-inf (in words) ([1]; dose-response curve): remained inactive

Structure (SMILES): NNC(=O)c1ccncc1 [isoniazid, reference compound]
- IC50 [1, 7]: 11 µM
- activity on Mm-inf (in words) [1, 10]: sterilizing activity
- pro-infective effect on Mm-inf (in words) [1]: slight pro-infective effect
- MIC [1, 12]: 4.1 µg/mL
- MIC [1, 13]: 30 µM
- IC50 ([2]; 72 h): 10 µM
- MIC [2, 14]: 30 µM
- MIC ([2]; converted from μM, read-out: MIC in broth): 4.1 µg/mL
- activity on Mm-broth (in words) [2]: sterilizing activity

Structure (SMILES): COc1cc(/C=C/c2cc(O)cc(O)c2)ccc1O [compound 4, isorhapontigenin]
- activity on Mm-inf (in words) ([1]; dose-response curve): lack of activity

Structure (SMILES): COc1cc(/C=C/c2ccc(O)cc2)cc(OC)c1 [compound 2, pterostilbene]
- activity at 20 µM [1, 15]: 28%
- IC50 [1, 9]: 19.8 µM
- activity on Mm-inf (in words) ([1]; dose-response curve): validated anti-infectives without antibiotic properties
- normalized residual growth of Dd-inf [3]: –0.16
- IC50 ([3]; dose-response curve): 11.1 µM
- activity on Mm in broth (in words) [2]: inactive on Mm in broth

Structure (SMILES): COc1cc(OC)cc(-c2c(-c3ccc(O)cc3)oc3ccc(/C=C/c4cc(O)cc(O)c4)cc23)c1 [compound 67]
- IC50 [1, 7]: 19.6 µM

Structure (SMILES): COc1nc2ccc(Br)cc2cc1[C@@H](c1ccccc1)[C@@](O)(CCN(C)C)c1cccc2ccccc12 [bedaquiline]
- IC50 [1, 7]: 4 µM
- activity on Mm-inf (in words) [1, 10]: sterilizing activity
- IC50 ([2]; 72 h): 1.6 µM
- MIC ([2]; 72 h, read-out: MIC Mm-broth): 3.3 µM
- activity on Mm-broth (in words) [2]: sterilizing activity

Structure (SMILES): CO[C@H]1/C=C/O[C@@]2(C)Oc3c(C)c(O)c4c(O)c(c(/C=N/N5CCN(C)CC5)c(O)c4c3C2=O)NC(=O)/C(C)=C\C=C\[C@H](C)[C@H](O)[C@@H](C)[C@@H](O)[C@@H](C)[C@H](OC(C)=O)[C@@H]1C [rifampicin, reference compound]
- IC50 [1, 7]: 5 µM
- activity on Mm-inf (in words) [1, 10]: sterilizing activity
- MIC [1, 13]: 10 µM
- activity on Dd growth, Dd-inf (in words) ([3]; dose-response curve): affected amoebae growth slightly at the highest tested concentrations
- IC50 ([2]; 72 h): 0.1 µM
- MIC [2, 14]: 1.1 µM
- activity on Mm-broth (in words) [2]: sterilizing activity

Structure (SMILES): Oc1ccc(C2Oc3ccc(C=Cc4cc(O)cc(O)c4)cc3C2c2cc(O)cc(O)c2)cc1 (stereo not drawn) [compound 11, trans-δ-viniferin]
- activity at 20 µM [1, 15]: 110%
- normalized residual growth of Mm-broth [2]: 1

Structure (SMILES): COc1cc(/C=C\c2ccc3c(c2)[C@H](c2cc(O)cc(O)c2)[C@@H](c2ccc(O)cc2)O3)cc(OC)c1 [compound 57]
- IC50 [1, 7]: 9.8 µM

Structure (SMILES): COc1cc(C=Cc2ccc3c(c2)C(c2cc(OC)cc(OC)c2)C(c2ccc(O)cc2)O3)cc(OC)c1 (stereo not drawn) [compound 21]
- activity at 20 µM [1, 15]: 140%
- normalized residual growth of Mm-broth [2]: 1

Structure (SMILES): Oc1ccc([C@H]2Oc3ccc(/C=C\c4cc(O)cc(O)c4)cc3[C@@H]2c2cc(O)cc(O)c2)cc1 [compound 55]
- activity on Mm-inf (in words) ([1]; at 20 μM): inactive

Structure (SMILES): COc1cc(/C=C\c2ccc3c(c2)[C@H](c2cc(OC)cc(OC)c2)[C@@H](c2ccc(O)cc2)O3)cc(OC)c1 [compound 58]
- activity on Mm-inf (in words) ([1]; at 20 μM): inactive

Structure (SMILES): COc1cc(OC)cc([C@H]2c3cc(/C=C\c4cc(O)cc(O)c4)ccc3O[C@@H]2c2ccc(O)cc2)c1 [compound 56]
- IC50 [1, 7]: 19.7 µM
